In patent US8802597B2, “Herbicidal pyrimidines” (E I du Pont de Nemours and Company, priority 2003, dated 2014):

How the values were obtained:
Assay in all cases: Test C pre/postemergence
Format in all cases: in vivo
Details in all cases: Preemergence
[1] = system: Surinam grass (Brachiaria decumbens)
Procedure, shortened: (§1)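 Rating scale 0–100: 0 means no effect, 100 complete control; taken visually 12 to 14 days post-treatment versus controls. Pre- and postemergence greenhouse applications, postemergence at 1- to 4-leaf stage, non-phytotoxic solvent with surfactant as carrier.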

[2] = system: crabgrass (Digitaria sanguinalis)
Procedure, shortened: as §1

corn (Zea mays) = system: corn (Zea mays)
Procedure, shortened: as §1

[3] = system: johnsongrass (Sorghum halepense)
Procedure, shortened: as §1

[4] = system: common (oilseed) sunflower (Helianthus annuus)
Procedure, shortened: as §1

[5] = system: cocklebur (Xanthium strumarium)
Procedure, shortened: as §1

[6] = system: eastern black nightshade (Solanum ptycanthum)
Procedure, shortened: as §1

kochia (Kochia scoparia) = system: kochia (Kochia scoparia)
Procedure, shortened: as §1

[7] = system: giant foxtail (Setaria faberii)
Procedure, shortened: as §1

[8] = system: morningglory (Ipomoea coccinea)
Procedure, shortened: as §1

[9] = system: lambsquarters (Chenopodium album)
Procedure, shortened: as §1

soybean (Glycine max) = system: soybean (Glycine max)
Procedure, shortened: as §1

[10] = 31 g ai/ha, scale 0 to 100, 0 no effect, 100 complete control
[11] = 62 g ai/ha, scale 0 to 100, 0 no effect, 100 complete control

COC(=O)Cc1nc(C2CC2)nc(N)c1Br [Compound 13]
Plant response rating, Surinam Grass [1, 10]: 0
Plant response rating, Surinam Grass [1, 11]: 0
Plant response rating, Surinam Grass ([1]; 125 g ai/ha, scale 0 to 100): 0
Plant response rating, Surinam Grass ([1]; 250 g ai/ha, scale 0 to 100): 10
Plant response rating, Crabgrass [2, 10]: 0
Plant response rating, Crabgrass [2, 11]: 0
Plant response rating, Crabgrass ([2]; 125 g ai/ha, scale 0 to 100): 0
Plant response rating, Crabgrass ([2]; 250 g ai/ha, scale 0 to 100): 0
Plant response rating, Corn (corn (Zea mays); [10]): 0
Plant response rating, Corn (corn (Zea mays); [11]): 5
Plant response rating, Corn (corn (Zea mays); 125 g ai/ha, scale 0 to 100): 10
Plant response rating, Corn (corn (Zea mays); 250 g ai/ha, scale 0 to 100): 30
Plant response rating, Johnsongrass [3, 10]: 0
Plant response rating, Johnsongrass [3, 11]: 0
Plant response rating, Johnsongrass ([3]; 125 g ai/ha, scale 0 to 100): 5
Plant response rating, Johnsongrass ([3]; 250 g ai/ha, scale 0 to 100): 45
Plant response rating, Sunflower [4, 10]: 5
Plant response rating, Sunflower [4, 11]: 50
Plant response rating, Sunflower ([4]; 125 g ai/ha, scale 0 to 100): 60
Plant response rating, Sunflower ([4]; 250 g ai/ha, scale 0 to 100): 90
Plant response rating, Cocklebur [5, 10]: 40
Plant response rating, Cocklebur [5, 11]: 60
Plant response rating, Cocklebur ([5]; 125 g ai/ha, scale 0 to 100): 90
Plant response rating, Cocklebur ([5]; 250 g ai/ha, scale 0 to 100): 95
Plant response rating, Nightshade [6, 10]: 0
Plant response rating, Nightshade [6, 11]: 0
Plant response rating, Nightshade ([6]; 125 g ai/ha, scale 0 to 100): 90
Plant response rating, Nightshade ([6]; 250 g ai/ha, scale 0 to 100): 90
Plant response rating, Kochia (kochia (Kochia scoparia); [10]): 45
Plant response rating, Kochia (kochia (Kochia scoparia); [11]): 60
Plant response rating, Kochia (kochia (Kochia scoparia); 125 g ai/ha, scale 0 to 100): 80
Plant response rating, Kochia (kochia (Kochia scoparia); 250 g ai/ha, scale 0 to 100): 85
Plant response rating, Foxtail, Giant [7, 10]: 0
Plant response rating, Foxtail, Giant [7, 11]: 0
Plant response rating, Foxtail, Giant ([7]; 125 g ai/ha, scale 0 to 100): 0
Plant response rating, Foxtail, Giant ([7]; 250 g ai/ha, scale 0 to 100): 5
Plant response rating, Morningglory [8, 10]: 60
Plant response rating, Morningglory [8, 11]: 65
Plant response rating, Morningglory ([8]; 125 g ai/ha, scale 0 to 100): 85
Plant response rating, Morningglory ([8]; 250 g ai/ha, scale 0 to 100): 90
Plant response rating, Lambsquarters [9, 10]: 50
Plant response rating, Lambsquarters [9, 11]: 85
Plant response rating, Lambsquarters ([9]; 125 g ai/ha, scale 0 to 100): 90
Plant response rating, Lambsquarters ([9]; 250 g ai/ha, scale 0 to 100): 90
Plant response rating, Soybean (soybean (Glycine max); [10]): 0
Plant response rating, Soybean (soybean (Glycine max); [11]): 60
Plant response rating, Soybean (soybean (Glycine max); 125 g ai/ha, scale 0 to 100): 90
Plant response rating, Soybean (soybean (Glycine max); 250 g ai/ha, scale 0 to 100): 90

CCOC(=O)C(Cl)c1nc(C2CC2)nc(N)c1Br (stereo not drawn) [Compound 31]
Plant response rating, Surinam Grass [1, 10]: 0
Plant response rating, Surinam Grass [1, 11]: 0
Plant response rating, Surinam Grass ([1]; 125 g ai/ha, scale 0 to 100): 0
Plant response rating, Surinam Grass ([1]; 250 g ai/ha, scale 0 to 100): 0
Plant response rating, Crabgrass [2, 10]: 0
Plant response rating, Crabgrass [2, 11]: 0
Plant response rating, Crabgrass ([2]; 125 g ai/ha, scale 0 to 100): 0
Plant response rating, Crabgrass ([2]; 250 g ai/ha, scale 0 to 100): 0
Plant response rating, Corn (corn (Zea mays); [10]): 0
Plant response rating, Corn (corn (Zea mays); [11]): 0
Plant response rating, Corn (corn (Zea mays); 125 g ai/ha, scale 0 to 100): 0
Plant response rating, Corn (corn (Zea mays); 250 g ai/ha, scale 0 to 100): 0
Plant response rating, Johnsongrass [3, 10]: 0
Plant response rating, Johnsongrass [3, 11]: 0
Plant response rating, Johnsongrass ([3]; 125 g ai/ha, scale 0 to 100): 0
Plant response rating, Johnsongrass ([3]; 250 g ai/ha, scale 0 to 100): 5
Plant response rating, Sunflower [4, 10]: 0
Plant response rating, Sunflower [4, 11]: 0
Plant response rating, Sunflower ([4]; 125 g ai/ha, scale 0 to 100): 5
Plant response rating, Sunflower ([4]; 250 g ai/ha, scale 0 to 100): 70
Plant response rating, Cocklebur [5, 10]: 0
Plant response rating, Cocklebur [5, 11]: 60
Plant response rating, Cocklebur ([5]; 125 g ai/ha, scale 0 to 100): 75
Plant response rating, Cocklebur ([5]; 250 g ai/ha, scale 0 to 100): 85
Plant response rating, Nightshade [6, 10]: 0
Plant response rating, Nightshade [6, 11]: 0
Plant response rating, Nightshade ([6]; 125 g ai/ha, scale 0 to 100): 0
Plant response rating, Kochia (kochia (Kochia scoparia); [10]): 0
Plant response rating, Kochia (kochia (Kochia scoparia); [11]): 0
Plant response rating, Kochia (kochia (Kochia scoparia); 125 g ai/ha, scale 0 to 100): 50
Plant response rating, Kochia (kochia (Kochia scoparia); 250 g ai/ha, scale 0 to 100): 70
Plant response rating, Foxtail, Giant [7, 10]: 0
Plant response rating, Foxtail, Giant [7, 11]: 0
Plant response rating, Foxtail, Giant ([7]; 125 g ai/ha, scale 0 to 100): 0
Plant response rating, Foxtail, Giant ([7]; 250 g ai/ha, scale 0 to 100): 0
Plant response rating, Morningglory [8, 10]: 0
Plant response rating, Morningglory [8, 11]: 0
Plant response rating, Morningglory ([8]; 125 g ai/ha, scale 0 to 100): 10
Plant response rating, Morningglory ([8]; 250 g ai/ha, scale 0 to 100): 50
Plant response rating, Lambsquarters [9, 10]: 0
Plant response rating, Lambsquarters [9, 11]: 40
Plant response rating, Lambsquarters ([9]; 125 g ai/ha, scale 0 to 100): 40
Plant response rating, Lambsquarters ([9]; 250 g ai/ha, scale 0 to 100): 80
Plant response rating, Soybean (soybean (Glycine max); [10]): 0
Plant response rating, Soybean (soybean (Glycine max); [11]): 5
Plant response rating, Soybean (soybean (Glycine max); 125 g ai/ha, scale 0 to 100): 15
Plant response rating, Soybean (soybean (Glycine max); 250 g ai/ha, scale 0 to 100): 80

CCOC(=O)Cc1nc(C2CC2)nc(N)c1Br [Compound 12]
Plant response rating, Surinam Grass [1, 10]: 0
Plant response rating, Surinam Grass ([1]; 125 g ai/ha, scale 0 to 100): 0
Plant response rating, Surinam Grass ([1]; 250 g ai/ha, scale 0 to 100): 0
Plant response rating, Crabgrass [2, 10]: 0
Plant response rating, Crabgrass [2, 11]: 0
Plant response rating, Crabgrass ([2]; 125 g ai/ha, scale 0 to 100): 0
Plant response rating, Crabgrass ([2]; 250 g ai/ha, scale 0 to 100): 0
Plant response rating, Corn (corn (Zea mays); [10]): 0
Plant response rating, Corn (corn (Zea mays); [11]): 30
Plant response rating, Corn (corn (Zea mays); 125 g ai/ha, scale 0 to 100): 60
Plant response rating, Johnsongrass [3, 10]: 0
Plant response rating, Johnsongrass [3, 11]: 0
Plant response rating, Johnsongrass ([3]; 125 g ai/ha, scale 0 to 100): 5
Plant response rating, Johnsongrass ([3]; 250 g ai/ha, scale 0 to 100): 5
Plant response rating, Sunflower [4, 10]: 0
Plant response rating, Sunflower [4, 11]: 0
Plant response rating, Sunflower ([4]; 125 g ai/ha, scale 0 to 100): 0
Plant response rating, Sunflower ([4]; 250 g ai/ha, scale 0 to 100): 85
Plant response rating, Cocklebur [5, 10]: 50
Plant response rating, Cocklebur [5, 11]: 50
Plant response rating, Cocklebur ([5]; 125 g ai/ha, scale 0 to 100): 85
Plant response rating, Cocklebur ([5]; 250 g ai/ha, scale 0 to 100): 90
Plant response rating, Nightshade [6, 11]: 50
Plant response rating, Nightshade ([6]; 125 g ai/ha, scale 0 to 100): 60
Plant response rating, Nightshade ([6]; 250 g ai/ha, scale 0 to 100): 80
Plant response rating, Kochia (kochia (Kochia scoparia); [10]): 0
Plant response rating, Kochia (kochia (Kochia scoparia); [11]): 50
Plant response rating, Kochia (kochia (Kochia scoparia); 125 g ai/ha, scale 0 to 100): 50
Plant response rating, Kochia (kochia (Kochia scoparia); 250 g ai/ha, scale 0 to 100): 85
Plant response rating, Foxtail, Giant [7, 10]: 0
Plant response rating, Foxtail, Giant [7, 11]: 0
Plant response rating, Foxtail, Giant ([7]; 125 g ai/ha, scale 0 to 100): 0
Plant response rating, Foxtail, Giant ([7]; 250 g ai/ha, scale 0 to 100): 0
Plant response rating, Morningglory [8, 10]: 30
Plant response rating, Morningglory [8, 11]: 60
Plant response rating, Morningglory ([8]; 125 g ai/ha, scale 0 to 100): 60
Plant response rating, Morningglory ([8]; 250 g ai/ha, scale 0 to 100): 90
Plant response rating, Lambsquarters [9, 10]: 0
Plant response rating, Lambsquarters [9, 11]: 10
Plant response rating, Lambsquarters ([9]; 125 g ai/ha, scale 0 to 100): 40
Plant response rating, Lambsquarters ([9]; 250 g ai/ha, scale 0 to 100): 70
Plant response rating, Soybean (soybean (Glycine max); [11]): 50
Plant response rating, Soybean (soybean (Glycine max); 250 g ai/ha, scale 0 to 100): 70
